Laboratory results taken from patent US20260216238A1, “TETRATHIOMOLYBDIC ACID FOR USE IN TREATING COPPER METABOLISM-ASSOCIATED DISEASES OR DISORDERS (WILSON DISEASE)” (Alexion Pharmaceuticals, Inc., priority 2023, published 2026).

What was measured:
[1] = human, in vivo
[2] = test system: patients with Wilson disease (WD); assay: Study 301: daily mean AUEC of plasma directly measured non-ceruloplasmin-bound copper (dNCC), copper mobilization; assay type: in vivo, human; conditions: for Mean Daily dNCC AUEC0-48 w, LSM: ANCOVA; for Mean Daily dNCC AUEC0-48 w, LSM / Mean Daily dNCC AUEC0-48 w, Mean: multiple imputation; for Mean Daily dNCC AUEC0-48 w, Mean: Full Analysis Set; for Mean Daily dNCC AUEC0-48 w, Between Group LSM Diff / Mean Daily dNCC AUEC0-48 w, Within Group LSM: lower block of Table 5
Description: FIG. 1 provides a schematic view of the study design. […] This study is referred throughout as Study 301.
The primary endpoint integrated copper mobilization and sequestration (i.e., copper control) throughout the 48-week Primary Treatment Period by assessment of daily mean area under the effect-time curve (AUEC) of directly measured non-ceruloplasmin-bound copper (dNCC) concentration. […] Measurement of dNCC in plasma is highly sensitive and accurate, requiring no special formulas or assumptions. As proposed, dNCC AUEC0-48 W is an indirect measure of copper mobilization and sequestration.
This assessment is also applicable to SoC treatments. In addition, plasma Cp, CpC, plasma total copper, and LBC were measured with AUEC calculated for plasma total copper and LBC.
The AUEC for dNCC concentration was calculated using the trapezoidal rule, and then divided by number of days to yield a mean daily AUEC plasma dNCC concentration from baseline to Week 48 (expressed as μmol/L and described as AUEC0-48 W).
Tests were performed at a significance level of 0.05 (2-sided).

[3] = test system: patients with Wilson disease (WD); assay: Study 301: adverse events in participants who switched from SoC to TTM in the Extension Period; conditions: SoC: Weeks 0-48, N=70; TTM after switch: Weeks 49-96, N=61
[4] = test system: patients with Wilson disease (WD); assay: Unified Wilson Disease Rating Scale (UWDRS) Part II total score (disability); assay type: in vivo, human; conditions: for UWDRS Part II (0-40) change from baseline, Mean (SD): pooled Studies 301 and 201; for UWDRS Part II (0-40) change from baseline, LSM / UWDRS Part II (0-40) change from baseline, Mean: Study 301 TTM long term set
Description: Unified Wilson Disease Rating Scale (Parts I, II, and III): The UWDRS is a clinical rating scale designed to evaluate the neurological manifestations of WD that generally can be divided into 3 movement disorder syndromes: dystonic, ataxic, and Parkinsonian syndrome. The UWDRS comprises 3 parts: UWDRS Part I (level of consciousness, item 1), UWDRS Part II (a patient-reported review of daily activity items [disability], items 2 to 11), and UWDRS Part III (a detailed neurological examination, items 12 to 34).
The UWDRS Part I and Part III were assessed by a neurologist who is blinded to the treatment randomization, while UWDRS Part II may be reported to a non-blinded member of the study team by the patient, family member, or caregiver. The UWDRS has not been formally evaluated in adolescents. However, the components of Part I (level of consciousness), Part II (patient or caregiver-reported disability) and Part III (neurologic examination findings) were not fundamentally different between adults and adolescents. Patients aged 12 years and older were expected to be able to comply with UWDRS assessments.
Pooled results from all such participants will be integrated together into one timeline to allow analyses of changes in UWDRS, long-term copper control, and long-term safety laboratory data.

[5] = test system: patients with Wilson disease (WD); assay: Clinical Global Impression-Severity scale (CGI-S); assay type: in vivo, human; conditions: for CGI-S (1 to 7, 1 is normal) change from baseline, LSM / CGI-S (1 to 7, 1 is normal) change from baseline, Mean: Study 301 TTM long term set
Description: Clinical Global Impression-[…]: The Clinical Global Impression (CGI) rating scales were commonly used measures of symptom severity, treatment response, and the efficacy of treatments in treatment studies of adult and pediatric patients with mental disorders.
The Clinical Global Impression-Severity scale (CGI-S) is a 7-point scale that requires the clinician to rate the severity of the patient's illness at the time of assessment, relative to the clinician's past experience with patients who have the same diagnosis. Considering total clinical experience, a patient was assessed on severity of illness at the time of rating as: 1, normal, not at all ill; 2, borderline ill; 3, mildly ill; 4, moderately ill; 5, markedly ill; 6, severely ill; or 7, extremely ill.

[6] = Subpopulation E, Baseline, TTM N=104, SoC N=56
[7] = Subpopulation E, Week 48, TTM N=89, SoC N=47

## bis-choline tetrathiomolybdate [TTM]
[1]
  effect of age on plasma total molybdenum clearance: not a significant covariate
[2]; Cohort 1
  Mean Daily dNCC AUEC0-48 w, LSM Diff (TTM-SoC): 1.64 µmol/L
  Mean Daily dNCC AUEC0-48 w, LSM: 2.50 µmol/L
  Mean Daily dNCC AUEC0-48 w, Mean: 2.68 µmol/L
  Mean Daily dNCC AUEC0-48 w, Between Group LSM Diff: 1.72 µmol/L
  Mean Daily dNCC AUEC0-48 w, Within Group LSM: 2.59 µmol/L
[2]; Cohort 2
  Mean Daily dNCC AUEC0-48 w, LSM Diff (TTM-SoC): 3.79 µmol/L
  Mean Daily dNCC AUEC0-48 w, LSM: 4.76 µmol/L
  Mean Daily dNCC AUEC0-48 w, Mean: 4.58 µmol/L
  Mean Daily dNCC AUEC0-48 w, Between Group LSM Diff: 3.68 µmol/L
  Mean Daily dNCC AUEC0-48 w, Within Group LSM: 4.64 µmol/L
[2]; Overall
  Mean Daily dNCC AUEC0-48 w, LSM Diff (TTM-SoC): 2.18 µmol/L
  Mean Daily dNCC AUEC0-48 w, LSM: 3.18 µmol/L
  Mean Daily dNCC AUEC0-48 w, Mean: 3.12 µmol/L
  Mean Daily dNCC AUEC0-48 w, Between Group LSM Diff: 2.12 µmol/L
  Mean Daily dNCC AUEC0-48 w, Within Group LSM: 3.06 µmol/L
[2]; W0-W48, cohort 1 incomplete response or intolerant to prior SoC, p<0.0001
  dNCC area under the effect curve, LSM difference (SE) TTM versus SoC: 1.64 (0.297)
[3]
  Musculoskeletal and connective tissue disorders, E (events): 7
  Musculoskeletal and connective tissue disorders, participants with AE: 7 (11.5) N (%)
[4]; 0-48W, symptomatic patients
  UWDRS Part II score change (mean): −1.7
[4]; Study 301 Full Analysis Set
  UWDRS Part II (0-40), Change from Baseline at 48 weeks, LSM: −0.1
  UWDRS Part II (0-40), Change from Baseline at 48 weeks, Mean: −0.6
[4]; TTM exposure 4 weeks
  UWDRS Part II (0-40) change from baseline, Mean (SD): −0.3 (2.28)
[4]; TTM exposure 12 weeks
  UWDRS Part II (0-40) change from baseline, Mean (SD): −0.4 (2.76)
[4]; TTM exposure 24 weeks
  UWDRS Part II (0-40) change from baseline, Mean (SD): −0.4 (3.42)
[4]; TTM exposure 36 weeks
  UWDRS Part II (0-40) change from baseline, Mean (SD): −0.9 (4.11)
[4]; TTM exposure 48 weeks
  UWDRS Part II (0-40) change from baseline, Mean (SD): −1.2 (4.24)
[4]; TTM exposure 60 weeks
  UWDRS Part II (0-40) change from baseline, Mean (SD): −1.4 (4.35)
[4]; TTM exposure 72 weeks
  UWDRS Part II (0-40) change from baseline, Mean (SD): −1.9 (4.74)
[4]; TTM exposure 96 weeks
  UWDRS Part II (0-40) change from baseline, Mean (SD): −2.5 (6.11)
[4]; TTM exposure 120 weeks
  UWDRS Part II (0-40) change from baseline, Mean (SD): −3.1 (6.82)
[4]; TTM exposure 144 weeks
  UWDRS Part II (0-40) change from baseline, Mean (SD): −3.3 (6.61)
[4]; TTM exposure 168 weeks
  UWDRS Part II (0-40) change from baseline, Mean (SD): −6.2 (10.17)
[4]; TTM exposure 192 weeks
  UWDRS Part II (0-40) change from baseline, Mean (SD): −5.9 (9.88)
[4]; TTM exposure 216 weeks
  UWDRS Part II (0-40) change from baseline, Mean (SD): −7.1 (10.90)
[4]; TTM exposure 240 weeks
  UWDRS Part II (0-40) change from baseline, Mean (SD): −6.6 (10.09)
[4]; TTM exposure 264 weeks
  UWDRS Part II (0-40) change from baseline, Mean (SD): −6.2 (9.02)
[4]; TTM vs SoC, P 0.4430
  UWDRS Part II (0-40), Difference at 48 weeks, LSM: 0.4
[4]; Week 24
  UWDRS Part II (0-40) change from baseline, LSM: −0.4
  UWDRS Part II (0-40) change from baseline, Mean: −0.3
[4]; Week 48
  UWDRS Part II (0-40) change from baseline, LSM: −0.7
  UWDRS Part II (0-40) change from baseline, Mean: −0.7
[4]; Week 72
  UWDRS Part II (0-40) change from baseline, LSM: −1.0
  UWDRS Part II (0-40) change from baseline, Mean: −1.2
[4]; Week 96
  UWDRS Part II (0-40) change from baseline, LSM: −1.1
  UWDRS Part II (0-40) change from baseline, Mean: −1.1
[4]; Week 120
  UWDRS Part II (0-40) change from baseline, LSM: −1.7
  UWDRS Part II (0-40) change from baseline, Mean: −1.4
[4]; Week 144
  UWDRS Part II (0-40) change from baseline, LSM: −2.0
  UWDRS Part II (0-40) change from baseline, Mean: −2.0
[5]; Study 301 Full Analysis Set
  CGI-S (1-7, 1 is normal), Change from Baseline at 48 weeks, LSM: −0.3
  CGI-S (1-7, 1 is normal), Change from Baseline at 48 weeks, Mean: −0.5
[5]; [6]
  CGI-S, Max: 6
  CGI-S, Mean: 2.9
  CGI-S, Min: 1,
[5]; Subpopulation E, Week 48
  CGI-S, Change from Baseline, LSM: −0.4
  CGI-S, Change from Baseline, LSM Diff (SE) (TTM vs SoC): −0.2 (0.13)
[5]; [7]
  CGI-S, Change from Baseline, Max: 1
  CGI-S, Change from Baseline, Mean: −0.4
  CGI-S, Change from Baseline, Median: 0.0
  CGI-S, Change from Baseline, Min: −3,
  CGI-S, Change from Baseline, Q1: −1.0,
  CGI-S, Change from Baseline, Q3: 0.0
[5]; TTM vs SoC, P 0.2290
  CGI-S, Difference at 48 weeks, LSM: −0.2
[5]; Week 24
  CGI-S (1 to 7, 1 is normal) change from baseline, LSM: −0.3
  CGI-S (1 to 7, 1 is normal) change from baseline, Mean: −0.2
[5]; Week 48
  CGI-S (1 to 7, 1 is normal) change from baseline, LSM: −0.4
  CGI-S (1 to 7, 1 is normal) change from baseline, Mean: −0.5
[5]; Week 72
  CGI-S (1 to 7, 1 is normal) change from baseline, LSM: −0.5
  CGI-S (1 to 7, 1 is normal) change from baseline, Mean: −0.6
[5]; Week 96
  CGI-S (1 to 7, 1 is normal) change from baseline, LSM: −0.5
  CGI-S (1 to 7, 1 is normal) change from baseline, Mean: −0.6
[5]; Week 120
  CGI-S (1 to 7, 1 is normal) change from baseline, LSM: −0.7
  CGI-S (1 to 7, 1 is normal) change from baseline, Mean: −0.6
[5]; Week 144
  CGI-S (1 to 7, 1 is normal) change from baseline, LSM: −0.6
  CGI-S (1 to 7, 1 is normal) change from baseline, Mean: −0.6
